In brackets after ≈: the same amount, converted by molar mass.
Assays:
Assay in all cases: in vitro antibacterial activity, minimal inhibitory concentration
Assay type in all cases: cell-based
[1] = tested on: E. coli Brig; conditions: Escherichia coli
Excerpt: (§1) The compounds of the invention are new chemical compounds that are used as pharmacological agents and especially as broad spectrum antibacterial agents. They are active in vitro against strains of both gram-positive and gram-negative bacteria.
(§2) Minimal Inhibitory Concentration (μg/ml)

[2] = tested on: E. coli Vogel; conditions: Escherichia coli
Excerpt: as §1, §2

[3] = tested on: Entero. cloacae; conditions: Enterobacter cloacae
Excerpt: as §1, §2

[4] = tested on: Klebs. pneu.
Excerpt: as §1, §2

[5] = tested on: Prot. vulg.
Excerpt: as §1, §2

[6] = tested on: Pseudomonas #28; conditions: Pseudomonas #28, in vitro; read-out: Minimal Inhibitory Concentration
Excerpt: as §1, §2

[7] = tested on: Pseudomonas BRK 12-4-4; conditions: BRK1244; Pseudomonas BRK 12-4-4, in vitro
Excerpt: as §1, §2

[8] = tested on: Pseudomonas UI 18; conditions: UI18; Pseudomonas UI 18, in vitro
Excerpt: as §1, §2

[9] = tested on: Serr. marces.
Excerpt: as §1, §2

[10] = tested on: Staph. aureus S18733; conditions: Staphylococcus aureus
Excerpt: as §1, §2

[11] = tested on: Staph. aureus UC-76; conditions: Staphylococcus aureus, UC76; Staph. aureus UC-76, in vitro
Excerpt: as §1, §2

[12] = tested on: Strep. fec.
Excerpt: as §1, §2

| Structure (SMILES) | MIC [1] [µg/mL] | MIC [2] [µg/mL] | MIC [3] [µg/mL] | MIC [4] [µg/mL] | MIC [5] [µg/mL] | MIC [6] [µg/mL] | MIC [7] [µg/mL] | MIC [8] [µg/mL] | MIC [9] [µg/mL] | MIC [10] [µg/mL] | MIC [11] [µg/mL] | MIC [12] [µg/mL] |
| --- | --- | --- | --- | --- | --- | --- | --- | --- | --- | --- | --- | --- |
| NC(=O)CC[C@H](N)C(=O)Nc1ccc(-c2ncc(C(=O)N[C@@H](C(=O)NC3C(=O)N4C(C(=O)O)=C(CSc5nnnn5CC(=O)O)CSC34)c3ccccc3)c(O)n2)cc1 (stereo partly drawn) [Example 41, N-[2-[4-(L-Glutaminylamino)phenyl]-4-hydroxy-5-pyrimidinylcarbonyl]-7-[D-2-amino-2-phenylacetamido]-3-[[(1-carboxymethyl-1H-tetrazol-5-yl)thio]methyl]-3-cephem-4-carboxylic acid] | 12.5 (≈ 14.8 µM) | 3.1 (≈ 3.66 µM) | 12.5 (≈ 14.8 µM) | 3.1 (≈ 3.66 µM) | 1.6 (≈ 1.89 µM) | 12.5 (≈ 14.8 µM) | 12.5 (≈ 14.8 µM) | 12.5 (≈ 14.8 µM) | 50 (≈ 59 µM) | 25 (≈ 29.5 µM) | 12.5 (≈ 14.8 µM) | > 50 |
| CC(=O)NCC(=O)Nc1ccc(-c2ncc(C(=O)N[C@@H](C(=O)NC3C(=O)N4C(C(=O)O)=C(CSc5nnnn5C)CSC34)c3ccccc3)c(O)n2)cc1 (stereo partly drawn) [Example 22] | 6.3 (≈ 8.14 µM) | 0.8 (≈ 1.03 µM) | 6.3 (≈ 8.14 µM) | 0.8 (≈ 1.03 µM) | 6.3 (≈ 8.14 µM) | 6.3 (≈ 8.14 µM) | 12.5 (≈ 16.2 µM) | 12.5 (≈ 16.2 µM) | 50 (≈ 64.6 µM) | 3.1 (≈ 4.01 µM) | 1.6 (≈ 2.07 µM) | 50 (≈ 64.6 µM) |
| CC(=O)NC(CCC(N)=O)C(=O)Nc1ccc(-c2ncc(C(=O)N[C@@H](C(=O)NC3C(=O)N4C(C(=O)O)=C(CSc5nnnn5C)CSC34)c3ccccc3)c(O)n2)cc1 (mixture of isomers) [Example 23, N-[2-[4-(N-Acetyl-DL-glutaminylamino)phenyl]-4-hydroxy-5-pyrimidinylcarbonyl]-7-[D-2-amino-2-phenylacetamido]-3-[[1-methyl-1H-tetrazol-5-yl)thio]methyl]-3-cephem-4-carboxylic acid] | 3.1 | 0.8 | 6.3 | 3.1 | 12.5 | 6.3 | 12.5 | 6.3 | 50 | 12.5 | 3.1 | 50 |
| CC(=O)NC(C)C(=O)Nc1ccc(-c2ncc(C(=O)N[C@@H](C(=O)N[C@@H]3C(=O)N4C(C(=O)O)=C(COC(N)=O)CS[C@H]34)c3ccccc3)c(O)n2)cc1 (mixture of isomers) [Example 20, N-[2-[4-(N-Acetyl-DL-alanylamino)phenyl]-4-hydroxy-5-pyrimidinylcarbonyl]-7-[D-2-amino-2-phenylacetamido]-3-carbamoyloxymethyl-3-cephem-4-carboxylic acid] | 50 | 12.5 | > 50 | 25 | 25 | 6.3 | 12.5 | 6.3 | > 50 | 3.1 | 1.6 | > 50 |
| CC(=O)N[C@H](C)C(=O)Nc1ccc(-c2ncc(C(=O)N[C@@H](C(=O)N[C@@H]3C(=O)N4C(C(=O)O)=C(COC(C)=O)CS[C@H]34)c3ccc(O)cc3)c(O)n2)cc1 [Example 11, N-[2-[4-(N-Acetyl-D-alanylamino)phenyl]-4-hydroxy-5-pyrimidinylcarbonyl]-7-[D-2-amino-2-(4-hydroxyphenyl)-acetamido]-3-acetoxymethyl-3-cephem-4-carboxylic acid] | 50 (≈ 66.9 µM) | 6.3 (≈ 8.43 µM) | 50 (≈ 66.9 µM) | 25 (≈ 33.4 µM) | 12.5 (≈ 16.7 µM) | 3.1 (≈ 4.15 µM) | 6.3 (≈ 8.43 µM) | 6.3 (≈ 8.43 µM) | > 50 | 25 (≈ 33.4 µM) | 6.3 (≈ 8.43 µM) | 50 (≈ 66.9 µM) |
| CC(=O)N[C@@H](C)C(=O)Nc1ccc(-c2ncc(C(=O)N[C@@H](C(=O)N[C@@H]3C(=O)N4C(C(=O)O)=C(COC(C)=O)CS[C@H]34)c3ccccc3)c(O)n2)cc1 [Example 10, N-[2-[4-(N-Acetyl-L-alanylamino)phenyl]-4-hydroxy-5-pyrimidinylcarbonyl]-7-[D-2-amino-2-phenylacetamido]-3-acetoxy-methyl-3-cephem-4-carboxylic acid] | 25 (≈ 34.2 µM) | 12.5 (≈ 17.1 µM) | 50 (≈ 68.3 µM) | 25 (≈ 34.2 µM) | 25 (≈ 34.2 µM) | 6.3 (≈ 8.61 µM) | 12.5 (≈ 17.1 µM) | 6.3 (≈ 8.61 µM) | > 50 | 6.3 (≈ 8.61 µM) | 3.1 (≈ 4.24 µM) | 50 (≈ 68.3 µM) |
| CC(=O)OCC1=C(C(=O)O)N2C(=O)[C@@H](NC(=O)[C@H](NC(=O)c3cnc(-c4ccc(NC(=O)C5CCCN5C(C)=O)cc4)nc3O)c3ccccc3)[C@H]2SC1 (mixture of isomers) [Example 13, N-[2-[4-(N-Acetyl-DL-prolylamino)phenyl]-4-hydroxy-5-pyrimidinylcarbonyl]-7-[D-2-amino-2-phenylacetamido]-3-acetoxy-methyl-3-cephem-4-carboxylic acid] | 50 | 12.5 | 50 | 25 | 50 | 6.3 | 12.5 | 12.5 | > 50 | 6.3 | 3.1 | 50 |
| CSCCC(NC(C)=O)C(=O)Nc1ccc(-c2ncc(C(=O)N[C@@H](C(=O)N[C@@H]3C(=O)N4C(C(=O)O)=C(COC(C)=O)CS[C@H]34)c3ccccc3)c(O)n2)cc1 (mixture of isomers) [Example 5, N-[2-[4-(N-Acetyl-DL-methionylamino)phenyl]-4-hydroxy-5-pyrimidinylcarbonyl]-7-[D-2-amino-2-phenylacetamido]-3-acetoxymethyl-3-cephem-4-carboxylic acid] | 25 | 6.3 | 25 | 12.5 | 25 | 3.1 | 6.3 | 6.3 | > 50 | 3.1 | 1.6 | 50 |
| CC(=O)N[C@H](C)C(=O)Nc1ccc(-c2ncc(C(=O)N[C@@H](C(=O)N[C@@H]3C(=O)N4C(C(=O)O)=C(COC(C)=O)CS[C@H]34)c3cccs3)c(O)n2)cc1 [Example 19, N-[2-[4-(N-Acetyl-D-alanylamino)phenyl]-4-hydroxy-5-pyrimidinylcarbonyl]-7-[D-2-amino-2-(2-thienyl)acetamido]-3-acetoxymethyl-3-cephem-4-carboxylic acid] | > 50 | 12.5 (≈ 16.9 µM) | 50 (≈ 67.8 µM) | 12.5 (≈ 16.9 µM) | 25 (≈ 33.9 µM) | 6.3 (≈ 8.54 µM) | 6.3 (≈ 8.54 µM) | 6.3 (≈ 8.54 µM) | > 50 | 1.6 (≈ 2.17 µM) | 0.8 (≈ 1.08 µM) | 25 (≈ 33.9 µM) |
| O=C(O)Cn1nnnc1SCC1=C(C(=O)O)N2C(=O)C(NC(=O)[C@H](NC(=O)c3cnc(-c4ccc(NC(=O)CN5CCCC5=O)cc4)nc3O)c3ccccc3)C2SC1 (stereo partly drawn) [Example 42] | 6.3 (≈ 7.47 µM) | 3.1 (≈ 3.67 µM) | 6.3 (≈ 7.47 µM) | 3.1 (≈ 3.67 µM) | 1.6 (≈ 1.9 µM) | 6.3 (≈ 7.47 µM) | 12.5 (≈ 14.8 µM) | 6.3 (≈ 7.47 µM) | 50 (≈ 59.3 µM) | 25 (≈ 29.6 µM) | 12.5 (≈ 14.8 µM) | > 50 |
| CC(=O)N[C@@H](C(=O)Nc1ccc(-c2ncc(C(=O)N[C@@H](C(=O)NC3C(=O)N4C(C(=O)O)=C(CSc5nnnn5C)CSC34)c3ccccc3)c(O)n2)cc1)C(C)C (stereo partly drawn) [Example 29] | 12.5 (≈ 15.3 µM) | 1.6 (≈ 1.96 µM) | 12.5 (≈ 15.3 µM) | 3.1 (≈ 3.8 µM) | 6.3 (≈ 7.72 µM) | 6.3 (≈ 7.72 µM) | 12.5 (≈ 15.3 µM) | 6.3 (≈ 7.72 µM) | 50 (≈ 61.3 µM) | 3.1 (≈ 3.8 µM) | 1.6 (≈ 1.96 µM) | 25 (≈ 30.6 µM) |

— patent publication US4311699A, “Aminoacid derivatives of cephalosporin compounds” (priority 1980, dated 1982)
